{"source": "paper PMC10708954", "about": "“Exploring the Effect of Compound Glycyrrhizin and Silybinin on the Metabolism of Pexidartinib in Rats Based on CYP3A4 and CYP2C9” (Advances in Pharmacological and Pharmaceutical Sciences, 2023)", "key": {"CYP2C9": {"system": "CYP2C9", "test": "Western blot of CYP2C9 protein expression in rat liver", "protocol": "(§1) The rats in all five groups were gavaged once a day for fourteen consecutive days. Groups E and G were gavaged with 150 mg/kg aqueous solution of silybinin (containing 21 mg/kg silybinin), groups F and H were gavaged with 13.5 mg/kg aqueous solution of compound glycyrrhizin (containing 4.5 mg/kg glycyrrhizin), and from the 15-days onwards, groups G and H were given 40 mg/kg of PXD per day for a total of 7-days, and equal amounts of saline were given to groups E and F. Group D was gavaged with equal amounts of saline until the end of the experiment. After gavage for 21 days, rats in each group were anesthetized with 10% urethane, and their fresh livers were snap-frozen in liquid nitrogen and stored at −80°C for subsequent experiments.\n(§2) Fresh livers were removed at −80°C and weighed portions were homogenized in ep tubes with lysis buffer containing 0.1% PMSF. We prepared 12% SDS-PAGE routine gel, then each group took the corresponding protein samples and prestained Marker samples, 80 V constant voltage for 90 min, the voltage was adjusted to 120 V, and electrophoresis was continued for 30 min. […] Imaging was performed using Imgage-ProPlus 6.0 software and quantitative analysis was performed using Image J software."}, "[1]": {"test": "Pharmacokinetics of PXD in rat plasma (HPLC-UV) after 14 days pretreatment with saline, silybinin or CG", "type": "in vivo, rats", "conditions": "for Cmax / Tmax / half-life / CL/F / Vd/F: rat, plasma, rats, n = 6, mean ± SD; for CL/F: read-out: CLz/F (converted); for Vd/F: read-out: Vz/F", "protocol": "Group B was gavaged with silybinin aqueous solution 150 mg/kg (containing silybinin 21 mg/kg), group C was gavaged with compound glycyrrhizin aqueous solution 13.5 mg/kg (containing glycyrrhizin 4.5 mg/kg), and in contrast, group A was gavaged with an equal amount of saline. After 14-days of administration, three groups were given 40 mg/kg PXD. 0.5 mL of blood was taken from the caudal vein at 0.25, 0.50, 1.00, 2.00, 3.00, 4.00, 6.00, 8.00, 12.00, 24.00, and 48.00 h after being gavaged and added to EP tubes containing heparin, followed by centrifugation at 3500 rpm for 15 min, and finally the supernatant was stored at −20°C and stored for measurement.\nThe apparatus used in the chromatographic analysis of this work was an 1100 series high-performance liquid chromatography (product of Agilent, USA), which mainly included a vacuum degasser, a four-component infusion pump, an automatic sampler, a column temperature box, and a DAD detector. The fundamental steps were as follows. First of all, the chromatographic separation was carried out on a Venusil C18 column (4.6 mm × 250 mm, 5 μm). Subsequently, the analytes were thoroughly separated under the mobile phase water, acetonitrile, and 0.2% TFA (37 : 43 : 20).\nAfter preparatory 2 ml EP tubes, 300 μL of plasma samples and 15 μL of 10 ng/ml of alpelisib working solution were pipetted separately, followed by 300 μL of 10% sodium carbonate solution, mixed well, and then 1.0 ml of ethyl acetate was included to sediment the proteins. The mixture was vortexed for 2.0 min and subsequently centrifuged at 3500 rpm for 20 min at 4°C. At last, 900 μL of the upper organic phase was transferred to a fresh EP tube, blown dry with an air stream at 50°C, and then redissolved with 100 μL of mobile phase, and 20 μL was sampled for the assay.\nIn the current study, the drug concentration of PXD in rat plasma was plotted versus the time curve as well as all the bar graphs using GraphPad Prism 8.0 software. Then, DAS (Drug And Statistics) 2.0 software (Shanghai University of Traditional Chinese Medicine, China) was employed to get the main pharmacokinetic parameters of the analytes in nonatrial mode. Then, a one-way analysis of variance (ANOVA) was performed using SPSS (statistical product and service solutions) 25.0 software, while finally, an independent samples t-test was applied to the comparison of major pharmacokinetic parameters between the two groups, where Tmax was tested using rank sum test. Statistical significance was indicated by P < 0.05."}, "CYP3A4": {"system": "CYP3A4", "test": "Western blot of CYP3A4 protein expression in rat liver", "protocol": "as §1, §2"}, "[2]": {"conditions": "group B (silybinin pretreatment) compared to group A, P < 0.01"}, "[3]": {"conditions": "group B (silybinin pretreatment) compared to group A, P < 0.05"}, "[4]": {"conditions": "group C (CG pretreatment) compared to group A, P < 0.05"}, "[5]": {"conditions": "po, 40 mg/kg, Group A (control: saline 14 days, then single oral 40 mg/kg PXD)"}, "[6]": {"conditions": "po, 40 mg/kg, Group B (silybinin aqueous solution 150 mg/kg, containing silybinin 21 mg/kg, 14 days, then single oral 40 mg/kg PXD)"}, "[7]": {"conditions": "Group C (compound glycyrrhizin aqueous solution 13.5 mg/kg, containing glycyrrhizin 4.5 mg/kg, 14 days, then single oral 40 mg/kg PXD)"}}, "note": "Like-named read-outs stand apart in the source and are kept apart here."}
{"smiles": "FC(F)(F)c1ccc(CNc2ccc(Cc3c[nH]c4ncc(Cl)cc34)cn2)cn1", "note": "[PXD, Pexidartinib]", "values": [{"measurement": "effect of PXD on the protein expression of CYP2C9", "setting": "CYP2C9; rat, in vivo, 40 mg/kg", "result": "inducing effect"}, {"measurement": "decrease of Vz/F", "setting": "[1]; [2]", "result": 31.78, "unit": "%"}, {"measurement": "increase of AUC0⟶t", "setting": "[1]; [2]", "result": 28.97, "unit": "%"}, {"measurement": "increase of AUC0⟶∞", "setting": "[1]; [2]", "result": 26.74, "unit": "%"}, {"measurement": "decrease of CLz/F", "setting": "[1]; [3]", "result": 20.69, "unit": "%"}, {"measurement": "increase of Cmax", "setting": "[1]; [3]", "result": 20.72, "unit": "%"}, {"measurement": "increase of Cmax", "setting": "[1]; group C (CG pretreatment) compared to group A, P < 0.01", "result": 36.25, "unit": "%"}, {"measurement": "increase of AUC0⟶t", "setting": "[1]; [4]", "result": 20.98, "unit": "%"}, {"measurement": "increase of AUC0⟶∞", "setting": "[1]; [4]", "result": 21.22, "unit": "%"}, {"measurement": "Cmax", "setting": "[1]; [5]", "result": "10800 ± 1140", "unit": "ng/mL"}, {"measurement": "Tmax", "setting": "[1]; [5]", "result": "4.33 ± 1.37", "unit": "h"}, {"measurement": "half-life", "setting": "[1]; [5]", "result": "9.83 ± 3.13", "unit": "h"}, {"measurement": "CL/F", "setting": "[1]; [5]", "result": 4.83, "unit": "mL/min/kg"}, {"measurement": "Vd/F", "setting": "[1]; [5]", "result": "4.09 ± 1.16", "unit": "L/kg"}, {"measurement": "Cmax", "setting": "[1]; [6]", "result": "13000 ± 1160", "unit": "ng/mL"}, {"measurement": "Tmax", "setting": "[1]; [6]", "result": "4.17 ± 0.98", "unit": "h"}, {"measurement": "half-life", "setting": "[1]; [6]", "result": "8.49 ± 3.3", "unit": "h"}, {"measurement": "CL/F", "setting": "[1]; [6]", "result": 3.83, "unit": "mL/min/kg"}, {"measurement": "Vd/F", "setting": "[1]; [6]", "result": "2.79 ± 1.03", "unit": "L/kg"}, {"measurement": "Cmax", "setting": "[1]; [7]", "result": "14700 ± 2390", "unit": "ng/mL"}, {"measurement": "Tmax", "setting": "[1]; [7]", "result": "4.1 ± 1.1", "unit": "h"}, {"measurement": "half-life", "setting": "[1]; [7]", "result": "5.23 ± 1.13", "unit": "h"}, {"measurement": "CL/F", "setting": "[1]; [7]", "result": 4.17, "unit": "mL/min/kg"}, {"measurement": "Vd/F", "setting": "[1]; [7]", "result": "1.81 ± 0.3", "unit": "L/kg"}, {"measurement": "effect of PXD on the protein expression of CYP3A4", "setting": "CYP3A4; 40 mg/kg PXD per day for 7 days after silybinin or CG", "result": "inducing effect"}]}
{"smiles": "COc1cc(C2Oc3cc([C@H]4Oc5cc(O)cc(O)c5C(=O)[C@@H]4O)ccc3OC2CO)ccc1O", "note": "(stereo partly drawn) [silybinin, Silybinin]", "values": [{"measurement": "protein expression level of CYP2C9", "setting": "CYP2C9; rat liver, gavage 21 days, compared with the control group, P < 0.05 and P < 0.01", "result": "decreased"}, {"measurement": "protein expression level of CYP3A4", "setting": "CYP3A4; gavage 21 days, compared with the control group, P < 0.05 and P < 0.01", "result": "decreased"}]}
